# Reference: patent US20250040554A1, “NEW USES OF PHENMEDIPHAM AND HERBICIDAL COMBINATIONS COMPRISING PHENMEDIPHAM” (BAYER AKTIENGESELLSCHAFT, priority 2021, published 2025)
# What was measured:
# Assay type in all cases: in vivo
# corn (Zea mays, ZEAMX) = assay: Field selectivity trial corn; settings: 35 DAA
# Text: (§1) The respective (combinations of) materials were applied to weed plants in the greenhouse or in the field at the respective growth stage indicated hereinafter for the different weed species mentioned below. The respective (combinations of) active ingredients were also applied to corn, cotton and soybean crop plants, and the selectivity (damage) in these crop plants rated (assessed).
# (§2) Visual scoring of the damage to the trial plants took place after the time mentioned in the respective Table—indicated in number of Days After Application (DAA). Damage and development of all above-ground parts of the respective plants was recorded. Visual rating was done on a percentage scale in relation to the untreated control (100%=all plants dead; 50%=green plant biomass reduced by 50%, and 0%=no discernible difference=like control plot).
# (§3) The trials in the greenhouse were sprayed with an application volume of 300 L/ha with an automated track sprayer. The plots in the field were sprayed with an application volume of 140 L/ha with a hand held spray boom.
# (§4) Phenmedipham and combinations of phenmedipham and mesotrione were applied at varying application rates (Dose Rate) to the crop plants of non-traited soybean (Glycine max, GLXMA) and corn (Zea mays, ZEAMX). The results are shown in Table 5 as the % damage when assessed 35 days after application (DAA), respectively.
# (§5) In all the selectivity trials of Table 5 the adjuvant Mero® (rapeseed oil methyl ester) was added to the respective spray mixture in an amount corresponding to 1 L/ha for PMP, 1 L/ha for MST, and 2 L/ha for mixtures of PMP+MST.
# (§6) The herbicidal effects observed for the herbicide(s) are indicated in % activity against the respective weed. The % damage (injury) indicated refers to the maximum damage observed.
# [1] = tested on: ECHCG=Echinochloa crus-galli; assay: Greenhouse weed control trial ECHCG; settings: 25 DAA
# Text: as §1, §2, §3
# (§7) In greenhouse selectivity trials and trials herbicidal activity trials against weed plants were investigated in post-emergence application of the respective material(s).
# (§8) Herbicidal activity against different weeds (undesired plants) was calculated as follows.
# (§9) wherein • A, B=respective value in percent of active ingredient A at a dose rate of a g/ha, ingredient B at a dose rate of b g/ha • E^C=Expected value according to Colby (S. R. Colby; Weeds 15 (1967), 20-22) in % at a dose rate of a+b, each in g/ha • Δ=Difference (in %) between measured value E and expected value E^C (%) (measured value minus expected value)
# (§10) • measured value E is greater than E^C:->synergism (+Δ) • measured value E is equal to E^C:->additive effect • measured value E is smaller than E^C:->antagonism (−Δ)
# (§11) The weed control activity of different (combinations of) materials was investigated in greenhouse trials for the following weed species: • STEME=Stellaria media • ECHCG=Echinochloa crus-galli • BROTE=Bromus tectorum
# (§12) Phenmedipham amd Mesotrione were applied at varying application rates (Dose Rate) to the weed plant species STEME, ECHCG and BROTE. The results are shown in Tables 2a to 2c as the % control when assessed 25 days after application (25 DAA).
# (§13) In all the trials of Table Tables 2a to 2c Mero® (rapeseed oil methyl ester) was added to the respective spray mixture in an amount corresponding to 1 L/ha for PMP, 1 L/ha for MST, and 2 L/ha for mixtures of PMP+MST.
# [2] = tested on: non-traited soybean (Glycine max, GLXMA); assay: Field selectivity trial soybean; settings: 35 DAA
# Text: as §1, §2, §3, §4, §5, §6
# BROTE=Bromus tectorum = assay: Greenhouse weed control trial BROTE; settings: 25 DAA
# Text: as §1, §2, §3, §7, §8, §9, §10, §11, §12, §13
# PANRA=Panicum ramosum = assay: Weed control field trial PANRA; settings: 15 DAA
# Text: as §1, §2, §9
# After the harmful plants had emerged, they were treated, at the respective growth stage indicated, with the respective materials as indicated at a water application rate of 187 L/ha.
# After the treatment (15 days after the treatment), the herbicidal activity of respective material was scored visually at the same time by comparing the differently treated plots with the untreated control plots. The score figures of the different plots were averaged.
# The dose rates of herbicidal ingredients used in each case are indicated for the respective active ingredient and refer to the amount of active ingredient per hectare (g/ha).
# The weed control activity of different (combinations of) herbicidal active ingredients was investigated in field trials for the following weed species: • AMARE=Amaranthus retroflexus • KCHSC=Kochia scoparia • PANRA=Panicum ramosum
# The growth stage of AMARE was BBCH 19, the growth stage of KCHSC was BBCH 19 and the growth stage of PANRA was BBCH 22 at the time of application of the respective material.
# Phenmedipham and the respective aroylcyclohexanedione herbicide were applied at varying application rates (Dose Rate) to the different species of weed plants. The results are shown in Tables 4a to 4d as the % control when assessed 15 days after application (DAA), respectively.
# In all the trials of Tables 4a to 4d Mero® (rapeseed oil methyl ester) was added to the respective spray mixture in an amount corresponding to 1 L/ha for PMP, 1 L/ha for the respective aroylcyclohexanedione herbicide, and 2 L/ha for mixtures of PMP+the respective aroylcyclohexanedione herbicide.
smiles,measurement,setting,value
"CS(=O)(=O)c1ccc(C(=O)C2C(=O)CCCC2=O)c([N+](=O)[O-])c1 [MST, 2-[4-(methylsulfonyl)-2-nitrobenzoyl]cyclohexane-1,3-dione]",maximum damage ZEAMX,"corn (Zea mays, ZEAMX); 25 g/ha",0%
same,maximum damage ZEAMX,"corn (Zea mays, ZEAMX); 50 g/ha",0%
same,% control ECHCG,[1]; 12.5 g/ha,15%
same,% control ECHCG,[1]; 25 g/ha,28%
same,% control ECHCG,[1]; 50 g/ha,70%
same,% control ECHCG,[1]; 75 g/ha,70%
same,maximum damage GLXMA,[2]; 25 g/ha,12%
same,maximum damage GLXMA,[2]; 50 g/ha,29%
same,% control BROTE,BROTE=Bromus tectorum; 12.5 g/ha,30%
same,% control BROTE,BROTE=Bromus tectorum; 25 g/ha,30%
same,% control BROTE,BROTE=Bromus tectorum; 50 g/ha,35%
same,% control BROTE,BROTE=Bromus tectorum; 75 g/ha,40%
same,% control PANRA,PANRA=Panicum ramosum; 20 g/ha,15%
"COC(=O)Nc1cccc(OC(=O)Nc2cccc(C)c2)c1 [PMP, 3-[(methoxyformyl)amino]phenyl (3-methylphenyl)carbamate]",maximum damage ZEAMX,"corn (Zea mays, ZEAMX); 75 g/ha",6%
same,maximum damage ZEAMX,"corn (Zea mays, ZEAMX); 125 g/ha",6%
same,maximum damage ZEAMX,"corn (Zea mays, ZEAMX); 250 g/ha",6%
same,% control ECHCG,[1]; 12.5 g/ha,0%
same,% control ECHCG,[1]; 25 g/ha,0%
same,% control ECHCG,[1]; 50 g/ha,0%
same,% control ECHCG,[1]; 75 g/ha,0%
same,% control ECHCG,[1]; 100 g/ha,0%
same,% control ECHCG,[1]; 125 g/ha,0%
same,% control ECHCG,[1]; 300 g/ha,10%
same,maximum damage GLXMA,[2]; 75 g/ha,10%
same,maximum damage GLXMA,[2]; 125 g/ha,15%
same,maximum damage GLXMA,[2]; 250 g/ha,14%
same,% control BROTE,BROTE=Bromus tectorum; 12.5 g/ha,0%
same,% control BROTE,BROTE=Bromus tectorum; 25 g/ha,0%
same,% control BROTE,BROTE=Bromus tectorum; 50 g/ha,9%
same,% control BROTE,BROTE=Bromus tectorum; 75 g/ha,0%
same,% control BROTE,BROTE=Bromus tectorum; 100 g/ha,0%
same,% control BROTE,BROTE=Bromus tectorum; 125 g/ha,0%
same,% control BROTE,BROTE=Bromus tectorum; 300 g/ha,20%
same,% control PANRA,PANRA=Panicum ramosum; 150 g/ha,0%
same,% control PANRA,PANRA=Panicum ramosum; 300 g/ha,5%
